16 molecules from patent publication US20040010038A1, “Propargylamino indan derivatives and propargylamino tetralin derivatives as brain-selective MAO inhibitors” (priority 2002, published 2004) can be followed below.

Where a name gives a salt, the structure may show the parent alone.

One test concerns the target T1, MAO-B (Rattus norvegicus, UniProt P19643).
T1 construct: The MAO enzyme source was a homogenate of rat brain in 0.3 M sucrose 1:20 w/v; from tissue; host or cells: rat brain homogenate
T1 sequence (P19643 1-520): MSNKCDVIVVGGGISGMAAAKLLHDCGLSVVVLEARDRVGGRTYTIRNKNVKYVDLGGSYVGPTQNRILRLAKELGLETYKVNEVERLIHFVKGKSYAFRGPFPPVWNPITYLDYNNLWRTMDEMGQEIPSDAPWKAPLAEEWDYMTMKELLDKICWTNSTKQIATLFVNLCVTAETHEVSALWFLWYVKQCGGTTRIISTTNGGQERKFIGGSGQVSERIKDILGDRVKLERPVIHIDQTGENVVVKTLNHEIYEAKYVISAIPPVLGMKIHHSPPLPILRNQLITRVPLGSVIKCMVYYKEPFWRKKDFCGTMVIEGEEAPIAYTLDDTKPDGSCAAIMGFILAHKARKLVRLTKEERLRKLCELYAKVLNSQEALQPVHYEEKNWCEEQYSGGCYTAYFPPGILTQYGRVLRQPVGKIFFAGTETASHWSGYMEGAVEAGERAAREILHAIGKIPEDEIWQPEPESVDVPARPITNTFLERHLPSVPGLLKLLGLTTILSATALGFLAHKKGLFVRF
The experiment in a line: Inhibition of MAO activity in vitro (PEA as substrate). The class given is biochemical.
Details: not given
The protocol:
(§1) Inhibition of MAO Activity In Vitro Experimental Protocol
(§2) The reaction was then stopped by addition of citric acid. Radioactivity indicates the production of 5-HT and PEA metabolites formed as a result of MAO activity.
(§3) A mixture of toluene: ethyl acetate (1:1) was added to the reaction and mixed for 10 minutes, followed by 5 minutes of centrifugation at 1760 g. The upper phase was taken for radioactive determination by liquid scintillation spectrometry.
What is called IC50 is the concentration that gives 50% inhibition. In the case of `C#CCN(C)C1CCc2cccc(O)c21` (racemic) [Cmpd 118, 3-(methyl-prop-2-ynylamino)-4-indanol], the IC50 came to 0.05 µM.

Still in this test, the particulars now being: rat brain homogenate, 60 min pre-incubation at 37° C., 14C PEA substrate; read-out: In vitro IC50 B.
As for `C#CCN(C)C1CCc2ccc(OC(=O)N(C)CCC)cc21` (stereo not shown) [Cmpd 143], the 50% inhibitory concentration (IC50) was found to be 9.2 µM.
The same measure, in the same setting: under `C#CCN(C)C1CCc2c(OC(=O)N(C)CC)cccc21` (stereo not shown) [Cmpd 142] stands 4 µM.
The same measure, in the same setting: under `C#CCN(C)C1CCc2c(OC(=O)c3c(OC)cccc3OC)cccc21` (racemic) [Cmpd 121] stands 3 µM; under `C#CCN(C)[C@@H]1CCc2ccc(OC(=O)N(C)CC)cc21` [Cmpd 140], 12 µM.
Still for that read-out and setting: with `C#CCN(C)C1CCc2c(OC(=O)c3ccccc3)cccc21` (racemic) [Cmpd 120] the figure was 0.91 µM.
On to `C#CCN(C)C1CCc2ccc(O)cc21` (racemic) [Cmpd 112, 3-(Methyl-Prop-2-Ynyl Amino)-5-Indanol], for which the half-inhibitory concentration (IC50) turned out to be 0.01 µM.
Still for that read-out and setting: under `C#CCN(C)C1CCc2cc(OC(=O)c3ccccc3)c(OC(=O)c3ccccc3)cc2C1` (racemic) [Cmpd 138, 6,7-di-O-benzoyl-2-(methyl-prop-2-ynylamino)-tetralin HCl] stands 0.4 µM; under `C#CCNC1CCc2ccc(OC(=O)N(C)CC)cc2C1` (stereo not shown) [Cmpd 149], 100 µM; under `C#CCN(C)C1CCc2cc(OC(=O)c3ccccc3)c(OC(=O)c3ccccc3)cc21` (racemic) [Cmpd 137, 5,6-Di-O-Benzoyl-1-(Methyl-Prop-2-Ynyl-Amino)-Indan HCl], 21 µM.
As to `C#CCN(C)[C@@H]1CCc2ccc(OC(=O)c3c(OC)cccc3OC)cc21` [Cmpd 134], the half-maximal inhibitory concentration (IC50) was 5.9 µM.
Same read-out and setting: under `C#CCN(C)C1CCc2ccc(O)cc2C1` (racemic) [Cmpd 123, 7-(methyl-prop-2-ynylamino)-2-tetralinol] stands 0.48 µM.
For the molecule `C#CCN(C)C1CCc2ccc(OC(=O)c3ccccc3)cc2C1` (racemic) [Cmpd 124, 7-O-benzoyl-2-(methyl-prop-2-ynylamino)-tetralin Hcl], the half-maximal inhibitory concentration (IC50) came out at 1.2 µM.
Same read-out and setting: with `C#CCN(C)[C@@H]1CCc2ccc(OC(C)=O)cc21` [Cmpd 116] the figure was 0.0056 µM; with `C#CCN(C)C1CCc2cccc(OC(=O)N(C)CCC)c21` (stereo not shown) [Cmpd 144], 63 µM.
Turning to `C#CCN(C)[C@H]1CCc2ccc(O)cc21` [Cmpd 113, (S)3-(methyl-prop-2-ynylamino)-5-indanol], the half-inhibitory concentration (IC50) was determined as 23 µM.

A further test concerns the target T1, MAO-B. The experiment in a line: Inhibition of MAO activity in vivo, MAO-B. As to conditions: po, read-out: % inhibition B. On the procedure: (§4) Inhibition of MAO Activity In Vivo: Chronic Treatment Experimental Protocol
(§5) Rats were treated with the test compounds (Table 5) at several dose levels by oral administration, one dose daily for 7-21 days, and decapitated 2 hours after the last dose. The activities of MAO-A and MAO-B were determined in the brain, liver and intestine as described in the previous example. Inhibition of MAO activity was calculated by dividing MAO activity in the treated rats by MAO activity in the control rats (saline treated, MAO activity in these rats was taken as 100%).
as §3
Broadly, the inhibition is the change of the read-out against control, counted positive when it falls. With `C#CCN(C)[C@@H]1CCc2ccc(OC(=O)N(C)CC)cc21` [Cmpd 140], the inhibition at 2 µmol/kg came out at 10%, the inhibition at 10 µmol/kg worked out at 30% and the inhibition at 50 µmol/kg amounted to 73%.

The target in another test is T1, MAO-B. The experiment in a line: Inhibition of MAO activity in vivo, MAO-B. As to conditions: 10 μmol/kg (3.2-4 mg/kg), acute, tissue not stated.
For `C#CCN(C)[C@@H]1CCc2ccc(OC(=O)c3c(OC)cccc3OC)cc21` [Cmpd 134], the inhibition at 10 µmol/kg is 0%.

The next test deals with T2, MAO-A (Rattus norvegicus, UniProt P21396).
T2 construct: The MAO enzyme source was a homogenate of rat brain in 0.3 M sucrose 1:20 w/v; from tissue; host or cells: rat brain homogenate
T2 sequence (P21396 1-526): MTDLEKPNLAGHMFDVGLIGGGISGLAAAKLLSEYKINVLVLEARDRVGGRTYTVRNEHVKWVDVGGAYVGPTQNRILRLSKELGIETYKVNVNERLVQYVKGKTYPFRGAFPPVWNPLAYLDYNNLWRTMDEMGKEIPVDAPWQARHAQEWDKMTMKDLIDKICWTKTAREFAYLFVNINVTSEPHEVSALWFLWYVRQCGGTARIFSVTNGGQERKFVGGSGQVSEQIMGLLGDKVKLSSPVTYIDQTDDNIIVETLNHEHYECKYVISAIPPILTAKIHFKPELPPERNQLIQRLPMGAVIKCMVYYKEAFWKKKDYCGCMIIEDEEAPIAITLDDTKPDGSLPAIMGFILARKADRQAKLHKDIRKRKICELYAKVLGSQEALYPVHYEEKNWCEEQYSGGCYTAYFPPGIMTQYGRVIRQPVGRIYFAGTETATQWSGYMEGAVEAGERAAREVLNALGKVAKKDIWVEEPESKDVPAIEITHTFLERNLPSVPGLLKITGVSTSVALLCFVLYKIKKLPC
The experiment in a line: Inhibition of MAO activity in vivo, MAO-A. As to conditions: 10 μmol/kg (3.2-4 mg/kg), acute, tissue not stated.
`C#CCN(C)[C@@H]1CCc2ccc(OC(=O)c3c(OC)cccc3OC)cc21` [Cmpd 134]: the inhibition at 10 µmol/kg was 9%.

The target in another test is T2, MAO-A. The experiment in a line: Inhibition of MAO activity in vivo, MAO-A. As to conditions: po, read-out: % inhibition A. On the procedure:
as §4, §5, §3
As to `C#CCN(C)[C@@H]1CCc2ccc(OC(=O)N(C)CC)cc21` [Cmpd 140], the inhibition at 2 µmol/kg stood at 6%, the inhibition at 10 µmol/kg is 51% and the inhibition at 50 µmol/kg is 65%.

A further test concerns the target T2, MAO-A. The experiment in a line: Inhibition of MAO activity in vitro (5-HT as substrate). The class given is biochemical.
Details: not given
On the procedure: as §1, §2, §3
Take `C#CCN(C)[C@@H]1CCc2ccc(OC(=O)N(C)CC)cc21` [Cmpd 140]: half-maximal inhibition (IC50) required 4.3 µM.

The test is the same for the next values; noted with them: rat brain homogenate, 60 min pre-incubation at 37° C., 14C 5-HT substrate; read-out: In vitro IC50 A.
Take `C#CCN(C)C1CCc2ccc(OC(=O)N(C)CCC)cc21` (stereo not shown) [Cmpd 143]: the half-maximal inhibitory concentration (IC50) stood at 5.6 µM.
Same read-out and setting: with `C#CCN(C)C1CCc2c(OC(=O)N(C)CC)cccc21` (stereo not shown) [Cmpd 142] the figure was 0.027 µM.
Same read-out and setting: under `C#CCN(C)C1CCc2c(OC(=O)c3c(OC)cccc3OC)cccc21` (racemic) [Cmpd 121] stands 0.34 µM; under `C#CCN(C)C1CCc2c(OC(=O)c3ccccc3)cccc21` (racemic) [Cmpd 120], 0.13 µM.
The same measure, in the same setting: under `C#CCN(C)C1CCc2ccc(O)cc21` (racemic) [Cmpd 112, 3-(Methyl-Prop-2-Ynyl Amino)-5-Indanol] stands 0.03 µM; under `C#CCN(C)C1CCc2cc(OC(=O)c3ccccc3)c(OC(=O)c3ccccc3)cc2C1` (racemic) [Cmpd 138, 6,7-di-O-benzoyl-2-(methyl-prop-2-ynylamino)-tetralin HCl], 1.2 µM; under `C#CCNC1CCc2ccc(OC(=O)N(C)CC)cc2C1` (stereo not shown) [Cmpd 149], 2 µM.
Regarding `C#CCN(C)C1CCc2cc(OC(=O)c3ccccc3)c(OC(=O)c3ccccc3)cc21` (racemic) [Cmpd 137, 5,6-Di-O-Benzoyl-1-(Methyl-Prop-2-Ynyl-Amino)-Indan HCl], the IC50 came to 1.4 µM.
As for `C#CCN(C)[C@@H]1CCc2ccc(OC(=O)c3c(OC)cccc3OC)cc21` [Cmpd 134], the half-maximal inhibitory concentration (IC50) was 1.2 µM.
`C#CCN(C)C1CCc2ccc(O)cc2C1` (racemic) [Cmpd 123, 7-(methyl-prop-2-ynylamino)-2-tetralinol]: the IC50 amounted to 0.41 µM.
The same measure, in the same setting: under `C#CCN(C)C1CCc2ccc(OC(=O)c3ccccc3)cc2C1` (racemic) [Cmpd 124, 7-O-benzoyl-2-(methyl-prop-2-ynylamino)-tetralin Hcl] stands 1.2 µM; under `C#CCN(C)[C@@H]1CCc2ccc(OC(C)=O)cc21` [Cmpd 116], 0.035 µM; under `C#CCN(C)C1CCc2cccc(OC(=O)N(C)CCC)c21` (stereo not shown) [Cmpd 144], 71 µM.
Still for that read-out and setting: under `C#CCN(C)[C@H]1CCc2ccc(O)cc21` [Cmpd 113, (S)3-(methyl-prop-2-ynylamino)-5-indanol] stands 12 µM; under `C#CCN(C)C1CCc2cccc(O)c21` (racemic) [Cmpd 118, 3-(methyl-prop-2-ynylamino)-4-indanol], 0.07 µM.
